Experimental data from US20190175560A1, “MEBENDAZOLE CANCER THERAPIES AND METHODS OF USE” (Shepherd Therapeutics, Inc., priority 2017, published 2019).

Experiments:
[1] = tested on: SKOV-3 ovarian carcinoma cell line; assay: MBZ cell viability IC50 (CellTiter Glo); format: cell-based; details: Homo sapiens, SK-OV-3, 72 hours, 0-50 μM
Protocol: (§1) The effect of mebendazole administration on cell lines derived from exemplary cancers was tested. One approach to determining the effectiveness of mebendazole in the treatment of cancer comprises in vitro testing. In this approach, cancer cell lines representative of the cancers of the disclosure are cultured in vitro according to standard techniques (see, for example, Human Cell Culture Protocols, Third Edition, […] R. D. Hughes, Editors, Humana Press, 2012), and increasing concentrations of mebendazole are administered to determine the IC50 value. As used herein, the term “IC50 value” refers to the concentration of a compound (for example mebendazole) wherein the response to that compound (such as inhibited cellular viability) is reduced by half. The IC50 is thus a measure of the effectiveness of a compound in inhibiting a biological process. […] Based on this biology, several rare cancer tumor cell lines including neuroblastoma, rhabdomyosarcoma and Ewing sarcoma were analyzed for sensitivity to MBZ treatment in vitro. […] In all cases, including those described below, the viable cells were determined using the CellTiter Glo® kit and an IC50 curve was generated using the PRISM software. […] FIGS. 1 and 2 show the effect of mebendazole on 3 ovarian cancer derived cell lines, A2780cis, SKOV-3 and TOV-112D at 24 hours, 48 hours and 72 hours. […] Percent cell viability is shown on the Y-axis, from 0 to 150 in units of 25. A2780cis cell data are represented by filled circles and a dotted line. SKOV-3 cell data are represented by squares and a solid line. TOV-112D cell data are represented by triangles and a dashed line. […] In FIG. 2, on the X-axis, the log concentration of mebendazole in μM, indicated from -4 to 4 in units of 2. In FIG. 2, on the Y-axis, percent viability is shown, from 0 to 125 in units of 25.

[2] = tested on: TOV-112D cells; assay: MBZ cell viability IC50 (CellTiter Glo); format: cell-based; details: Homo sapiens, TOV112D, 72 hours
Protocol: as §1

[3] = tested on: CHLA-9 Ewing's sarcoma cell line; assay: MBZ cell viability IC50 (CellTiter Glo); format: cell-based; details: 72 hours
Protocol: (§2) The effect of mebendazole administration on cell lines derived from exemplary cancers was tested. One approach to determining the effectiveness of mebendazole in the treatment of cancer comprises in vitro testing. In this approach, cancer cell lines representative of the cancers of the disclosure are cultured in vitro according to standard techniques (see, for example, Human Cell Culture Protocols, Third Edition, […] R. D. Hughes, Editors, Humana Press, 2012), and increasing concentrations of mebendazole are administered to determine the IC50 value. As used herein, the term “IC50 value” refers to the concentration of a compound (for example mebendazole) wherein the response to that compound (such as inhibited cellular viability) is reduced by half. The IC50 is thus a measure of the effectiveness of a compound in inhibiting a biological process. […] Based on this biology, several rare cancer tumor cell lines including neuroblastoma, rhabdomyosarcoma and Ewing sarcoma were analyzed for sensitivity to MBZ treatment in vitro. […] In all cases, including those described below, the viable cells were determined using the CellTiter Glo® kit and an IC50 curve was generated using the PRISM software.

[4] = tested on: NCI-H295R adrenal cortical carcinoma cell line; assay: MBZ cell viability IC50 (CellTiter Glo); format: cell-based; details: Homo sapiens, 72 hours
Protocol: as §2

[5] = tested on: Rh-30 rhabdomyosarcoma cell line; assay: MBZ cell viability IC50 (CellTiter Glo); format: cell-based; details: Rh30, 72 hours
Protocol: as §2

[6] = tested on: Rh-41 rhabdomyosarcoma cell line; assay: MBZ cell viability IC50 (CellTiter Glo); format: cell-based; details: Homo sapiens, Rh41, 72 hours
Protocol: as §2

[7] = tested on: SK-UT-1B leiomyosarcoma cell line; assay: MBZ cell viability IC50 (CellTiter Glo); format: cell-based; details: Homo sapiens, Skut1B, 72 hours
Protocol: as §2

[8] = tested on: SNU-16 gastric carcinoma cell line; assay: MBZ cell viability IC50 (CellTiter Glo); format: cell-based; details: Homo sapiens, 72 hours
Protocol: as §2

[9] = tested on: SW-13 adrenal cortical carcinoma cell line; assay: MBZ cell viability IC50 (CellTiter Glo); format: cell-based; details: Homo sapiens, SW13, 72 hours
Protocol: as §2

[10] = tested on: TC-32 Ewing's sarcoma cell line; assay: MBZ cell viability IC50 (CellTiter Glo); format: cell-based; details: Homo sapiens, 72 hours
Protocol: as §2

[11] = tested on: TC-71 Ewing's sarcoma cell line; assay: MBZ cell viability IC50 (CellTiter Glo); format: cell-based; details: 72 hours
Protocol: as §2

[12] = Tolerability of daily oral MBZ dosing in ACC PDX mice; format: in vivo; details: athymic nude mice with ACC PDX tumors; 50 or 200 mg/kg daily
Protocol: Despite a deepening understanding of the molecular events that lead to sustained tumor growth, there are currently no approved therapies for ACC. Identification of therapies for ACC has been hampered by the lack of ACC cell lines and transgenic mouse models. To circumvent these issues, the activity of MBZ was tested in several ACC patient-derived xenograft (PDX) models. Athymic nude mice were implanted subcutaneously with PDX tumors and treatment was initiated when tumors reached a size of 125-300 mm^3. Mice were randomized into three treatment groups to receive daily treatment with vehicle or MBZ at either 50 or 200 mg/kg for the duration of the study. Tumor size was measured twice weekly.

[13] = tested on: CHP-212 cells; assay: MBZ vs HA-PLGA-MBZ cell viability IC50 (Cell Titer Glo); format: cell-based; details: Homo sapiens, 72 hour incubation
Excerpt: (§3) An IC50 for each treatment was established using the PRISM software.

[14] = tested on: COV-362 cells; assay: as above; format: cell-based; details: COV362, 72 hour incubation
Excerpt: as §3

[15] = tested on: DMS-114 cells; assay: as above; format: cell-based; details: Homo sapiens, 72 hour incubation
Excerpt: as §3

[16] = tested on: PC-12 cells; assay: as above; format: cell-based; details: Rattus norvegicus, 72 hour incubation
Excerpt: as §3

[17] = tested on: SK-UT-1 cells; assay: as above; format: cell-based; details: Homo sapiens, 72 hour incubation
Excerpt: as §3

[18] = tested on: SNU-16 cells; assay: as above; format: cell-based; details: Homo sapiens, 72 hour incubation
Excerpt: as §3

[19] = tested on: SW-1271 cells; assay: as above; format: cell-based; details: SW1271, 72 hour incubation
Excerpt: as §3

[20] = tested on: gastric cancer primary cells isolated from patient-derived xenograft model GA0033; assay: Ex vivo 3D assay, cell viability (Cell Titer Glo); format: cell-based; details: 168 h, 3D culture, seven days
Protocol: (§4) To evaluate the efficacy of MBZ in an additional model system, an ex vivo 3D assay using gastric cancer primary cells isolated from two patient-derived xenograft models (A. GA0033 and B. GA3155) was performed. Cells were seeded in 3D cultures and treated for seven days with MBZ at nine different doses in triplicate. Cell viability was determined using Cell Titer Glo. An IC50 was established using the PRISM software.

[21] = tested on: gastric cancer primary cells isolated from patient-derived xenograft model GA3155; assay: Ex vivo 3D assay, cell viability (Cell Titer Glo); format: cell-based; details: 168 h, 3D culture, seven days
Protocol: as §4

Which results are given for COC(=O)Nc1nc2ccc(C(=O)c3ccccc3)cc2[nH]1 [MBZ, methyl N-(6-benzoyl-1H-benzimidazol-2-yl)carbamate]?
IC50 [1]: ~4.4 µM; IC50 [2]: 200 nM; IC50 [3]: 1020 nM; IC50 [4]: 100 nM; IC50 [5]: 100 nM; IC50 [6]: 490 nM; IC50 [7]: 100 nM; IC50 [8]: 420 nM; IC50 [9]: 260 nM; IC50 [10]: 410 nM; IC50 [11]: 470 nM; tolerability of daily oral dosing [12]: well tolerated with no overt toxicities; IC50 [13]: 130 nM; IC50 [14]: 330 nM; IC50 [15]: 800 nM; IC50 [16]: 1030 nM; IC50 [17]: 260 nM; IC50 [18]: 110 nM; IC50 [19]: > 50 µM; IC50 [20]: 740 nM; IC50 [21]: 760 nM
